These results are taken from publication PMC4979471 (Cell Death Discovery, 2015).

Holding throughout (experiment): Kinase selectivity, P33-radiolabeled assay
Holding throughout (type): biochemical
What all share (settings): 10 μM ATP

One assay deals with T1, ZAP70 (Homo sapiens, UniProt P43403).
T1 construct: purchased Reaction Biology Corp
T1 sequence (P43403 1-619): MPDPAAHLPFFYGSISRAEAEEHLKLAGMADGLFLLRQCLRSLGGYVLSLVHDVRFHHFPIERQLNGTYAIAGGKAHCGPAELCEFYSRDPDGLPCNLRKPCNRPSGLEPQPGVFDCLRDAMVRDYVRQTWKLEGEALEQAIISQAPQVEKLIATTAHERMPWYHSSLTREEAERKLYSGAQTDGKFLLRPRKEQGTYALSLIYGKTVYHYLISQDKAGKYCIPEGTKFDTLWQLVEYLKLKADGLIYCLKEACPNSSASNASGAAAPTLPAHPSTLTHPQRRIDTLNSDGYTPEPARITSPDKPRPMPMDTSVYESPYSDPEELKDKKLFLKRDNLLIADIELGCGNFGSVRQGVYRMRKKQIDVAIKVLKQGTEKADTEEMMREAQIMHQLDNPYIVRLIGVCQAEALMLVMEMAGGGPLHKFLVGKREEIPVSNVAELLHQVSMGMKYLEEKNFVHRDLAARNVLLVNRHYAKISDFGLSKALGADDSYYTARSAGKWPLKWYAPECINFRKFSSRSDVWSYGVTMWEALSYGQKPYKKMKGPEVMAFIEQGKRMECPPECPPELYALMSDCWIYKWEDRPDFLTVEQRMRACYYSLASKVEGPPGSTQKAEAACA
The procedure, abridged: (§1)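 Percent residual kinase activity versus DMSO is reported. Conditions: compound at 10 μM, ATP at 10 μM, n = 2.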

The target of another assay is T2, LKB1 (Homo sapiens, UniProt Q15831).
T2 construct: purchased Reaction Biology Corp
T2 sequence (Q15831 1-433): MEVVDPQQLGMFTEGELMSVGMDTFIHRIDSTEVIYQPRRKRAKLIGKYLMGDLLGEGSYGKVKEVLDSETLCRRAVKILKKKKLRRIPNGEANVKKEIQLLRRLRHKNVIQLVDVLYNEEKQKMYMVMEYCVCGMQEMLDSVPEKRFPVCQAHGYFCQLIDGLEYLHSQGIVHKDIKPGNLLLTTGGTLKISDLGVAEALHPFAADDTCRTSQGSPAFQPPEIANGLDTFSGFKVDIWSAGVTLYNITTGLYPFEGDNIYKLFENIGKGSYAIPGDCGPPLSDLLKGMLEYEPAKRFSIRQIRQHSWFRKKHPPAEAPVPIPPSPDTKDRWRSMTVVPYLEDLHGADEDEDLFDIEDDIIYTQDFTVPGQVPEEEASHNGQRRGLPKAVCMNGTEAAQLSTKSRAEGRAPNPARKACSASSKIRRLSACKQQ
T2 sequence (Q7RTN6 1-431 partner): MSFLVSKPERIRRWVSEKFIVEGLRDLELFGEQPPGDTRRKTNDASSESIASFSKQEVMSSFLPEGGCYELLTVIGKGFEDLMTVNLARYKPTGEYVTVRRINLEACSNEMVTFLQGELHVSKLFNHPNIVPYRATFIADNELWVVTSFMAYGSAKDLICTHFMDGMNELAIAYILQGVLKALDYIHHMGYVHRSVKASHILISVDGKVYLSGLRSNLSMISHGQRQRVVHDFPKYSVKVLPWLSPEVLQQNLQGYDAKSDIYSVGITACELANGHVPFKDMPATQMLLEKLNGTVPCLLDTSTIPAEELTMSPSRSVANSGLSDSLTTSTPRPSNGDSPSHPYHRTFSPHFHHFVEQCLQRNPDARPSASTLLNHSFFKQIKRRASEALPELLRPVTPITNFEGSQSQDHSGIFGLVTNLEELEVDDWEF
T2 sequence (Q9Y376 1-341 partner): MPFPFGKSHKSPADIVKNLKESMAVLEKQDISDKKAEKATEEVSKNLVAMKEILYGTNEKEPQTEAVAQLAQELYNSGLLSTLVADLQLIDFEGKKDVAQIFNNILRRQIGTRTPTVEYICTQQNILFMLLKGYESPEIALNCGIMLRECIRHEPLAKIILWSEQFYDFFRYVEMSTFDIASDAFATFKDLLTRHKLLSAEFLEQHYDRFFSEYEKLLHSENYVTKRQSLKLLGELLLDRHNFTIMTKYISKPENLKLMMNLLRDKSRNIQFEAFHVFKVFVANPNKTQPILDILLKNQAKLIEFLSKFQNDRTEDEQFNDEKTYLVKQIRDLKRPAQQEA
A digest of the protocol: as §1

For another assay, the target named is T3, TNIK (Homo sapiens, UniProt Q9UKE5).
T3 construct: purchased Reaction Biology Corp
T3 sequence (Q9UKE5 whole entry): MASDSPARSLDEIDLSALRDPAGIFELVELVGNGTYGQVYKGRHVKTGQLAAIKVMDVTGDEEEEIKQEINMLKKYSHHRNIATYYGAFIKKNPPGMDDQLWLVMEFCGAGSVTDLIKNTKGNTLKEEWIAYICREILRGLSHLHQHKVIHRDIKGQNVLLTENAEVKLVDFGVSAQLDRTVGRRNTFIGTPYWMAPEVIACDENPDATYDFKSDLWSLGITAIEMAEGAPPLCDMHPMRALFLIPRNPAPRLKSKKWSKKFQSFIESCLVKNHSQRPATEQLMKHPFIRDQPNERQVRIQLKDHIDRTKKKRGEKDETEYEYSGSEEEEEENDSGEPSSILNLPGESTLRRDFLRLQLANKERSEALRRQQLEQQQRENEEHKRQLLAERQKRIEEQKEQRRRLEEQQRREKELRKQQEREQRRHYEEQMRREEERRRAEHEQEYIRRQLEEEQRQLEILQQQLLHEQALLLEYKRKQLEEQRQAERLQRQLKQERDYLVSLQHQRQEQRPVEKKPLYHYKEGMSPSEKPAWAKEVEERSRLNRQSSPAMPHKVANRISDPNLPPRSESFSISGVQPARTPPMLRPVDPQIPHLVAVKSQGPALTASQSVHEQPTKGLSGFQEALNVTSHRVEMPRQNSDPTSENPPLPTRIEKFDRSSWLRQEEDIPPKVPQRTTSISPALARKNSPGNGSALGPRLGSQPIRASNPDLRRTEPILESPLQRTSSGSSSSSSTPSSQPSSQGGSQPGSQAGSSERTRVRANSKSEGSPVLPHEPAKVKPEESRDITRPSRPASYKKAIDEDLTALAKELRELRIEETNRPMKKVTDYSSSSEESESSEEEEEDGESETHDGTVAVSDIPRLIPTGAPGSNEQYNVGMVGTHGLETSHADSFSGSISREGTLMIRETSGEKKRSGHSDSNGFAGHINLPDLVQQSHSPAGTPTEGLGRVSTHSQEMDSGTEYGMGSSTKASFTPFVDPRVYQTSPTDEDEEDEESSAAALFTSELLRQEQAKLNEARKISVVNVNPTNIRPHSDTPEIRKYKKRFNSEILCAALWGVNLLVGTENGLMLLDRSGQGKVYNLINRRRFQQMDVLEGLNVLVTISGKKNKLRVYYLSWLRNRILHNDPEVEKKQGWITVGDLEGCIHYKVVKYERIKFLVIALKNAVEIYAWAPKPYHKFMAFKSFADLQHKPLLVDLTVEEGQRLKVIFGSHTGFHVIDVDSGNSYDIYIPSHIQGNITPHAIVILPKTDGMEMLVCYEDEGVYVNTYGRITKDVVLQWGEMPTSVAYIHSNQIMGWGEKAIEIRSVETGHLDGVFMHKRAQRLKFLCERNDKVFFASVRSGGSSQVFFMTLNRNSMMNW
A digest of the protocol: as §1

A further assay addresses T4, CAMK4 (Homo sapiens, UniProt Q16566).
T4 construct: purchased Reaction Biology Corp
T4 sequence (Q16566 1-473): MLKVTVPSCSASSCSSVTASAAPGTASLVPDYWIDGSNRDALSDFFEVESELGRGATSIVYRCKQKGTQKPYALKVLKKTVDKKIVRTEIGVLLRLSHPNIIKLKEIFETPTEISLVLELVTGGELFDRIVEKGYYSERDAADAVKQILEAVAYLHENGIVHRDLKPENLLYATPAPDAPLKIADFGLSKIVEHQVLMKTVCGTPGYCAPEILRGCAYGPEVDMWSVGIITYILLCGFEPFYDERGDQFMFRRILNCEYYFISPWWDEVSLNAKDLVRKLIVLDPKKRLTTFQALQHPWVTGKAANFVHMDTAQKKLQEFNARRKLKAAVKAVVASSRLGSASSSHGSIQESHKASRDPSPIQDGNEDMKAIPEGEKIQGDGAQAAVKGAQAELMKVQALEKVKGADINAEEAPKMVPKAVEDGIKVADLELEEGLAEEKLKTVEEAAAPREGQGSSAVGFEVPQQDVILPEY
The procedure, abridged:
as §1

A further assay has as its target T5, MEK3 (Homo sapiens, UniProt P46734).
T5 construct: purchased Reaction Biology Corp
T5 sequence (P46734 1-347): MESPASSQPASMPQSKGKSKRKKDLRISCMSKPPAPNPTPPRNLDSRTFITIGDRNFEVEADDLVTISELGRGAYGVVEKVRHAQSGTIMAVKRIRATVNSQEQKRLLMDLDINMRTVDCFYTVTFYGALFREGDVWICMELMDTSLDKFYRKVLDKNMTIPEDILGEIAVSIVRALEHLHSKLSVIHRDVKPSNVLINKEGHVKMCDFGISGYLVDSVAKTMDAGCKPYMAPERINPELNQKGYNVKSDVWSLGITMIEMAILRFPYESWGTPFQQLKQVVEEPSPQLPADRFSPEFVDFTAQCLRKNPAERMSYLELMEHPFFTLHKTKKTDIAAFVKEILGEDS
The procedure, abridged: as §1

The mark [1] stands for this setting: read-out: % Enzyme Activity (relative to DMSO controls) AVG.
[2] abbreviates: read-out: % Enzyme Activity (relative to DMSO controls) Data 1.
Setting [3] is: read-out: % Enzyme Activity (relative to DMSO controls) Data 2.

Read-outs that look alike come from different tables or passages of the source.

Consider `CC(C)(C)C(=O)N1N=CC[C@H]1c1ccccc1` [GSK′963], for which the remaining activity at 10 µM worked out at 111% at ZAP70 (setting [1]); 111% at ZAP70 (setting [2]); 111% at ZAP70 (setting [3]); 105% on LKB1 (setting [1]); 105% at LKB1 (setting [2]); 106% at LKB1 (setting [3]). The remaining activity at 10 µM on TNIK (setting [1]) came out at 106%; on TNIK (setting [2]), 108%; at TNIK (setting [3]) it was 104%; at CAMK4 (setting [1]) it was 96.7%; on CAMK4 (setting [2]), 95.5%; at CAMK4 (setting [3]), 97.9%. For the same compound, the remaining activity at 10 µM on MEK3 (setting [1]) came out at 108%; at MEK3 (setting [2]), 103%; at MEK3 (setting [3]), 113%.
